Laboratory results: US12186332B2, “Methods for overcoming WNT/beta-catenin anti-cancer resistance in leukemia stem cells” (STOWERS INSTITUTE FOR MEDICAL RESEARCH, priority 2019, dated 2025)
Like-named read-outs stand apart in the source and are kept apart here.

Experiments:
[1] = test system: blast cells, LSCs and HSPCs of leukemic Pten:β-cat^Act mice; format: in vivo
Description: Leukemic mice were treated with vehicle, chemotherapy, [Low]DXR (5×0.5 mg/kg), clinical DXR (1×20 mg/kg), or chemotherapy+[Low]DXR as described in FIG. S2.
Average frequency of each population (n≥6 per group) is shown.
Absolute number/femur±SD of each population (n≥6 per group) is shown.
At 10 days post-treatment, BM was analyzed by flow cytometry to determine frequency of blast cells. Average frequency±SD (n 6 per group). Note that this experiment used clinical dose (normal) or [Low]
Alternatively, a single injection on day 1 of 0.8 or 2.5 μg/g of DXR-loaded nanoparticles (NanoDXR) was given with and without chemotherapy. At 10 days post-treatment, BM was analyzed by flow cytometry to determine frequency of LSCs. Shown is average frequency±SD (n 6 per group).
Alternatively, a single injection on day 1 of 0.8 or 2.5 μg/g of DXR-loaded nanoparticles (NanoDXR) was given with and without chemotherapy. At 10 days post-treatment, BM was analyzed by flow cytometry to determine frequency of HSPCs. Shown is average frequency±SD (n 6 per group).
Whole bone marrow was isolated from uninduced HSC-SCL-Cre^+ Pten^fx/fx βcat^fx(Exon3)/+ (Pn:β-cat^Act) mice and combined with an equal portion of Cre negative bone marrow from a littermate and transplanted into irradiated (10 Grays) B6.SJL-Ptprc^a Pepc^b/BoyJ (Ptprc) recipients.
(§1) Chemotherapy for the animal model consisted of Nelarabine (Selleck) and Dexamethasone (BioVision) administered daily for 5 days consecutively. 43.4 mg/ml Nelarabine was administered intravenously via the tail vain according to the formula: Body Weight (g)×5=volume to inject (μl), which yielded 217 mg/kg. 2.5 mg/ml Dexamethasone was injected intraperitoneally according to the formula: Body Weight (g)×4=volume to inject (μl), yielding 10 mg/kg. […] [Low] NanoDXR treatment used doxorubicin nanoparticles (Tran et al. 2014) administered as a single IV injection once per week on day 1 relative to above treatments using 0.8 mg/kg. Maintenance [Low] NanoDXR consisted of once per week injections of 0.4 mg/kg. Groups combining Nelarabine with Doxorubicin used a single injection containing both drugs. All drugs were solubilized in 45% (2-Hydroxypropyl)-p-cyclodextrin (HBC) or 0.9% NaCl.
Cells were collected from bone marrow (femur and tibia), spleen, peripheral blood, and thymus. For cell surface phenotyping, a lineage cocktail (Lin) was used including CD3 (for HSPC but not LSC analysis), CD4, CD8, Mac-1, Gr, B220, IgM, and Ter119 (eBioscience, San Diego, CA). Monoclonal antibodies against CD3 (separate fluorophore for LSC analysis), Sca-1, c-Kit, CD45.1, and CD45.2 were also used where indicated. Cell sorting and analysis were performed using an inFlux (BD), MoFlo (Dako, Ft. Collins, CO) and/or CyAn ADP (Dako, Ft. Collins, CO). Data analysis was performed using FlowJo software (Ashland, OR).

[2] = test system: LSCs and HSPCs transcriptome; experiment: RNA-seq of populations sorted from treated leukemic mice; format: in vivo, mouse
Description: HSPCs, LSCs, and blast cells were sorted by FACS at […] post-treatment of leukemic mice; representative sorting gates are shown. Note distinct LSC population (compare to isotype) in vehicle versus low-dose DXR+chemotherapy treatment when LSCs show very low frequency. Other plots are from vehicle control. To obtain sufficient cells from the clinical DXR sample, the 5×4 […] DXR daily dosing schedule was used.
Data from two biological replicates of each, differing by <0.3 standard deviations, are shown.
Cohorts of leukemic mice were treated with vehicle, chemotherapy, [Low]DXR, clinical-dose DXR or chemotherapy+[Low]DXR as in FIG. 8. At 10 days post-treatment (day 1=start of treatment), blast cells, LSCs, and HSPCs were sorted using stringent gates (see FIG. 4A) for these populations. For each population, two biological replicates were made with 1-3 technical replicates each. Each biological replicate was a pool of sorted cells from 4-5 male and 4-5 female mice. Technical replicates were samples of sorted cells from each biological replicate. 1,000 cells per sample were sorted into 96-well plates with 7 μl lysis buffer containing RNase inhibitor (2 U/μl) from BM. First-strand cDNA synthesis and cDNA libraries were constructed using the SMARTer ultra low input RNA kit for sequencing—v3 (Clontech) following the manufacturer's instructions. cDNA quality was determined by Agilent high sensitivity DNA kit on Agilent 2100 BioAnalyzer (Agilent Technologies). Libraries were sequenced at 50 bp on the Illumina HiSeq 2500. Reads were aligned to UCSC mm10 with Tophat 2.1.1 (Kim et al. 2013), using gene models from Ensembl 80. Read counts per gene were obtained with HTSeq-count 0.6.0 (Anders et al. 2015). Analysis was done in R with the EdgeR package (Robinson et al. 2010) using default methods. […] Data can be accessed at https://www.ncbi.nlm.nih.qov/geo/query/acc.cqi?acc=GSE105049.

[3] = test system: PD-L1, TIM-3 and CD24 on LSCs; experiment: FACS of immune checkpoints on LSCs; format: in vivo, mouse; conditions: 3 days post-treatment
Excerpt: Frequency in BM (top) and frequency of the indicated immune checkpoint within the LSC population (bottom) are shown.

[4] = test system: leukemia (T-ALL) in Pten:β-cat^Act mice; experiment: Long-term survival of treated leukemic mice; format: in vivo, mouse
Description: Treatment schematic and Kaplan-Meier curves of leukemic mice treated as indicated. Red arrow indicates day 0 in survival curve.
Dashed line indicates day of final [Low]nanoDXR treatment.
as §1

[5] = test system: functional, tumorigenic LSCs; experiment: Tumorigenic assay: BM of treated leukemic mice transplanted into NSG recipients; format: in vivo, mouse; conditions: [Low]DXR alone; nearly 6 months post-transplant
Description: At 12 days post-treatment, BM was harvested from treated mice and transplanted into sub-lethally irradiated NSG recipients. Treatment and transplantation schematic and Kaplan-Meier curves of recipient mice were shown. Red arrow indicates day 0 in survival curve.
The free [Low]DXR treatment group (solid line) from FIG. 5F is shown for comparison (n=30 per group).
Tumorigenic assays were performed by transplanting 0.5, 1.5, or 4.5×10^4 bone marrow cells from treated mice at 12 days post-treatment into 3.25 Gy irradiated NSG recipient mice. 10 recipients were used for each dose from each group. One male and one female donor was used for each group. Leukemia was assessed in mice euthanized due to poor health by analyzing CD45^HiCD^3+ cell frequency. Mice having >20% Blasts in the bone marrow were considered leukemic. NSG and Ptprc mice were originally obtained from The Jackson Laboratory.

HEK-TOP cell lines = experiment: Cell Titer Glo cytotoxicity profile (CTG); conditions: concentration range as worded in the sentence
Description: Activity of compounds was tested against HEK-TOP cells vs. HEK FOP cells for inhibition of luciferase activity. The cytotoxicity profiles of the compounds were also tested using Cell Titer Glo assay (Promega) on HEK-TOP cell lines.

[6] = BM FACS 5 days post-treatment, DXR as [Low]DXR 5×0.5 mg/kg, chemotherapy = Nelarabine+Dexamethasone 5 days
[7] = clinical dose DXR 20 mg/kg alone

## COc1cccc2c1C(=O)c1c(O)c3c(c(O)c1C2=O)C[C@@](O)(C(=O)CO)C[C@@H]3O[C@H]1C[C@H](N)[C@H](O)[C@H](C)O1 [DXR, doxorubicin]
[1]; [6]
  effect on LSCs: significantly reduced
  effect on blast cells: no significant effect
[1]; [Low]DXR with Dexamethasone, 10 days post-treatment
  blast cell reduction when DXR substitutes for Nelarabine: did not significantly reduce blast cells
[1]; [7]
  HSPC frequency versus vehicle alone: not significantly different
  increase of LSC frequency among surviving cells: 5 fold
  increase of blast cell frequency among surviving cells: < 2 fold
  toxicity in terms of absolute cell number: broadly toxic to all cells
[1]; clinical equivalent dose DXR (5×4 mg/kg daily) with Dexamethasone, 10 days post-treatment
  blast cell reduction when DXR substitutes for Nelarabine: could substitute for a DNA-damaging agent in their reduction
[1]; free DXR, 5 doses of 0.15 μg/g, 10 days post-treatment
  reduction of LSCs: ineffective
[2]; [Low]DXR
  Hallmark MYC targets in LSCs: reduced
  most highly enriched terms in LSCs compared to control or chemotherapy: upregulation of immune-related terms
[2]; clinical DXR
  expression of resistance pathways, LSCs versus HSPCs: increased expression of oncogenic signaling and other resistance pathways
[3]; [Low]DXR
  LSC populations expressing PD-L1 and CD24: reduced
  TIM-3+ LSCs: reduced
[3]; clinical-dose DXR
  LSC populations expressing PD-L1 and CD24: this reduction was reversed
  TIM-3+ LSCs: increased substantially
[4]; clinical-dose DXR combined with chemotherapy
  survival compared to vehicle alone: significantly reduced survival
[4]; mouse, in vivo
  improvement of survival: did not
[5]
  recipients that remained healthy: 27/30
HEK-TOP cell lines
  toxicity (CTG): increased toxicity
